According to patent US8084440B2, “Method for improving the fertility of animals” (Desol B.V., priority 2005, dated 2011):

What was measured:
[1] = system: animals; test: Feed supplementation for improving the fertility of animals (titration of the substance into the feed); type: in vivo
Text: It was found in our studies that phytohormones and beta-glucans appeared to work in a wide range of concentrations for improving the fertility of animals. The optimal concentrations may vary between different species, however, the skilled person will know how to obtain an optimal concentration for a given species, for instance by titration of the desired compound into the animal feed and testing when this would have the optimal effect. The following may serve as guidance in this process. A skilled person will appreciate that the amount of free IAA in the ready to use feed has to be adjusted in order to supply the animal with an effective amount of free IAA. In order to adjust the free IAA concentration in the feed so that a certain daily intake of free IAA is achieved, an estimate has to be made of the feed intake of an animal or animal group. A skilled person is aware of the feed intake of a particular (kind or group of) animal(s). Typically, the feed intake per day is between 0.5 and 10% of the body weight of the animal, with occasional exceptions as high as 20%. Elderly animals tend to eat less and are considered to have a feed intake per day between 0.1 and 5%, typically of 1% of their body mass. […] A particularly good source of such 1,3 and 1,6 beta glucans may be found in preparations of Agaricus blazei murill (ABM) or yeast cell walls. […] This corresponds to approximately 0.1 to 100 mg/kglw/day of 1,3 and 1,6 beta glucans. […] The effect of improving the fertility of animals was also observed when the feed of animals was supplemented with Gibberelin or Gibberellic acid.

[2] = system: humans; settings: single doses of 0.1 g/kg body weight; cited from earlier work

For 1,3 and 1,6 beta glucans, the fertility of animals ([1]; fed with 1 to 10 mg/kglw/day) was “Excellent results”.

For C=C1C[C@]23C[C@@]1(O)CC[C@H]2[C@@]12C=C[C@H](O)[C@@](C)(C(=O)O1)[C@H]2[C@@H]3C(=O)O [Gibberellic acid], the fertility of animals ([1]; between 0.01 and 0.1 mg/kglw/day, such as 0.04 mg/kglw/day) was “Optimal results” and the fertility of animals ([1]; range of 0.004 and 0.4 mg/kglw/day) was “particularly pronounced”.

In the case of O=C(O)Cc1c[nH]c2ccccc12 [free IAA, indole-3-acetic acid], the “toxicity of single doses” value [2] is given as “non-toxic”, the fertility of animals ([1]; feed supplemented with free IAA instead of conjugated IAA) is given as “Particularly good results” and the fertility of animals ([1]; feeding with 0.4 mg/kglw/day) is given as “very effective”. For the same compound, the fertility of animals ([1]; provided in feed in the range of 0.004 and 40 mg/kglw/day) was “improved”.
